# Target: T1, ALK (baculovirus expressed human ALK kinase domain F1098-K1410) (Homo sapiens, UniProt Q9UM73)
# T1 construct: human ALK kinase domain F1098-K1410; made in house
# Assay: biochemical
# Conditions: 1 μM ATP, 4 μM poly-AEKY, 12 nM ALK, 2 hours at ambient temperature; read-out: ALK IC50
# In short: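 Baculovirus-expressed human ALK kinase domain (F1098-K1410) was run in a luciferase-coupled chemiluminescent format, with ATP near its KM. After 2 h at ambient temperature, remaining ATP was read by luciferase-luciferin luminescence. IC50 came from 10-point dose-response curves fitted to a four-parameter equation with Hill slope.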
# T1 sequence (Q9UM73 1098-1410): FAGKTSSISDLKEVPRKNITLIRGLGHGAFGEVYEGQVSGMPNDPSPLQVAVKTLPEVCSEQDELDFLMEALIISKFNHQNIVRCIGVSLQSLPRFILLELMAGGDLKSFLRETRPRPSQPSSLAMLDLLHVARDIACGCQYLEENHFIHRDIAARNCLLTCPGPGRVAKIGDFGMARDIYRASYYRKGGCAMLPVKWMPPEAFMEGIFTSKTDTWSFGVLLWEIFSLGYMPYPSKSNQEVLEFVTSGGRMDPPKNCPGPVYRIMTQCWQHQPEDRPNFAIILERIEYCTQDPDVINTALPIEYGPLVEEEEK
row,IC50 [nM],Compound
1,50 to 500,"CCOc1cccc(CCNC(=O)c2csc(CNC(=O)COc3ccc(OC(F)(F)F)cc3)n2)c1 [Entry 28, N-{2-[3-(ethyloxy)phenyl]ethyl}-2-({[({4-[(trifluoromethyl)oxy]phenyl}oxy)acetyl]amino}methyl)-1,3-thiazole-4-carboxamide]"
2,500 to 2000,"C[C@@H]1CN(C(=O)c2csc(CNC(=O)COc3ccc(OC(F)(F)F)cc3)n2)C[C@H](C)O1 [Entry 255, N-[(4-{[(2R,6S)-2,6-dimethylmorpholin-4-yl]carbonyl}-1,3-thiazol-2-yl)methyl]-2-({4-[(trifluoromethyl)oxy]phenyl}oxy)acetamide]"
3,50 to 500,"Cc1ccc(F)cc1CNC(=O)c1csc(CNC(=O)COc2ccc(OC(F)(F)F)cc2)n1 [Entry 47, N-[(5-fluoro-2-methylphenyl)methyl]-2-({[({4-[(trifluoromethyl)oxy]phenyl}oxy)acetyl]amino}methyl)-1,3-thiazole-4-carboxamide]"
4,50 to 500,"O=C(COc1ccc(OC(F)(F)F)cc1)NCc1nc(C(=O)NCCc2ccc(Cl)c(Cl)c2)cs1 [Entry 44, N-[2-(3,4-dichlorophenyl)ethyl]-2-({[({4-[(trifluoromethyl)oxy]phenyl}oxy)acetyl]amino}methyl)-1,3-thiazole-4-carboxamide]"

# Source: patent publication US7973061B2, “Anaplastic lymphoma kinase modulators and methods of use” (Exelixis, Inc., priority 2004, dated 2011)
